IC50 data for 32 molecules are collected here from patent US20220324865A1 (Bayer Aktiengesellschaft, priority 2018, published 2022).

For this experiment, the target named is T1, human EP3 receptor (Homo sapiens, UniProt P43115).
T1 construct: expressed in transfected cells; host or cells: CHO K1 (Chinese Hamster Ovary), stably co-transfected with Galpha16 and mitochondrial clytin
T1 sequence (P43115 1-390): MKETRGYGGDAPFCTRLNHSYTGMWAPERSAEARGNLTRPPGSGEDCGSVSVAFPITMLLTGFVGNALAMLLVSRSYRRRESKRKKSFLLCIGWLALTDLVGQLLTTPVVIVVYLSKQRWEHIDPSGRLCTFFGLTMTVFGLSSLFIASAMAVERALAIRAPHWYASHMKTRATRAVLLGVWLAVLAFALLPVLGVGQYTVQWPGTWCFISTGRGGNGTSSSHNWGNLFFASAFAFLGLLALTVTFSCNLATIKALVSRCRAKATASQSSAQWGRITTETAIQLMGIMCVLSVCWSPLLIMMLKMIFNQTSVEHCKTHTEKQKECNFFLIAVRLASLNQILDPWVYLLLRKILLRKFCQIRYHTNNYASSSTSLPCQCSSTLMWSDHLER
Briefly: Cellular in vitro assay for determining EP3 receptor activity (human EP3 cell line, sulprostone-stimulated calcium luminescence). Format: cell-based. The conditions noted are these: CHO cells expressing human EP3 and mitochondrial Clytin; antagonist mode, sulprostone at EC50; read-out: EP3 CHO mtCLY ANTAG IC50. An outline of the steps:
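CHO K1 cells stably expressing human EP3 with Gα16 and mitochondrial Clytin, loaded overnight with coelenterazine. Compounds added 10 min before sulprostone at its EC50; antagonism read immediately as reduced calcium-driven luminescence, quadruplicate points.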
In the case of `CN1CC(NC(=O)c2nn3cc(-c4ccc5c(c4)OCCO5)[nH]c(=O)c3c2C(F)(F)F)(c2ccc(F)cc2)C1` [6-535], the IC50 (commonly the concentration that inhibits the measured activity by half) was found to be 4.2 nM.

On to `CC(C)c1c(C(=O)N[C@H](CCO)c2ccc(F)cc2)nn2cc(-c3cccc(Cl)c3)[nH]c(=O)c12` [6-682], for which the concentration for half-maximal inhibition (IC50) was found to be 1.09 nM.

As for `COc1ccc(C(CCO)NC(=O)c2cc3c(=O)[nH]c(-c4ccc5ccccc5c4)cn3n2)cc1` (centres unmarked) [Example 2-2, N-[3-Hydroxy-1-(4-methoxyphenyl)propyl]-6-(2-naphthyl)-4-oxo-4,5-dihydropyrazolo[1,5-a]pyrazine-2-carboxamide], the IC50 stood at 1.18 nM.

Turning to `COCc1c(C(=O)N[C@@H](c2ccc(F)cc2)C(F)(F)CO)nn2cc(-c3ccc(Cl)c(C)c3)[nH]c(=O)c12` [6-621], the IC50 was 1.15 nM.

On to `Cc1ccc(-c2cn3nc(C(=O)N[C@@H](c4ccc(F)cc4)C(C)(C)O)c(CC(F)(F)F)c3c(=O)[nH]2)cc1F` [6-633], for which the IC50 is 3.5 nM.

With `O=C(N[C@H](CCO)c1ccc(F)cc1)c1cc2c(=O)[nH]c(-c3ccc4c(c3)COCC4)cn2n1` [Example 1-24, 6-(3,4-Dihydro-1H-isochromen-7-yl)-N-[(1R)-1-(4-fluorophenyl)-3-hydroxypropyl]-4-oxo-4,5-dihydropyrazolo[1,5-a]pyrazine-2-carboxamide], the IC50 stood at 7.3 nM.

Consider `Cc1cc(-c2cn3nc(C(=O)NC(C)C4CCC4)c(C4CC4)c3c(=O)[nH]2)ccc1Cl` (single isomer, unassigned) [6-300], for which the IC50 was determined as 3.3 nM.

Consider `Cc1ccc(-c2cn3nc(C(=O)NCC(C)(N)C(F)(F)F)c(C(F)(F)F)c3c(=O)[nH]2)cc1Cl` (single isomer, unassigned) [6-170], for which the IC50 was 2.1 nM.

`O=C(NC1(c2ccc(F)cc2)CC1)c1cc2c(=O)[nH]c(-c3ccc4c(c3)OCCO4)cn2n1` [6-23]: the IC50 stood at 3.1 nM.

In the case of `COc1ccc(CCNC(=O)c2cc3c(=O)[nH]c(-c4ccc5ccccc5c4)cn3n2)cc1OC` [6-75], the 50% inhibitory concentration (IC50) stood at 8.63 nM.

Consider `COc1ccc([C@@H](C)NC(=O)c2cc3c(=O)[nH]c(-c4ccc5c(c4)COCC5)cn3n2)cn1` [Example 1-51, 6-(3,4-Dihydro-1H-isochromen-7-yl)-N-[(1R)-1-(6-methoxypyridin-3-yl)ethyl]-4-oxo-4,5-dihydropyrazolo[1,5-a]pyrazine-2-carboxamide], for which the IC50 stood at 4 nM.

As for `Cc1ccc(-c2cn3nc(C(=O)NC4CCN(CC(F)(F)F)C4)c(C4CC4)c3c(=O)[nH]2)cc1F` (single isomer, unassigned) [6-391], the IC50 stood at 3.3 nM.

As to `COc1ccc(C(C)NC(=O)c2cc3c(=O)[nH]c(-c4ccc5ccccc5c4)cn3n2)cc1` (centres unmarked) [Example 2-3, N-[1-(4-Methoxyphenyl)ethyl]-6-(2-naphthyl)-4-oxo-4,5-dihydropyrazolo[1,5-a]pyrazine-2-carboxamide], the IC50 is 1.65 nM.

Take `O=C(N[C@H](CO)c1ccccc1)c1nn2cc(-c3ccc4ccccc4c3)[nH]c(=O)c2c1C(F)(F)F` [Example 1-77, N-[(1S)-2-Hydroxy-1-phenylethyl]-6-(naphthalen-2-yl)-4-oxo-3-(trifluoromethyl)-4,5-dihydropyrazolo[1,5-a]pyrazine-2-carboxamide]: the IC50 is 1.18 nM.

`CC[C@@H](COC)NC(=O)c1nn2cc(-c3ccc(Cl)c(C)c3)[nH]c(=O)c2c1C1CC1` [6-327]: the IC50 was found to be 0.48 nM.

Regarding `O=C(N[C@@H]1CCCc2ccccc21)c1cc2c(=O)[nH]c(-c3ccc4ccccc4c3)cn2n1` [Example 2-43, 6-(2-Naphthyl)-4-oxo-N-[(7R)-1,2,3,4-tetrahydronaphthalin-1-yl]-4,5-dihydropyrazolo[1,5-a]pyrazine-2-carboxamide], the IC50 is 3.7 nM.

For the molecule `Cc1ccc(-c2[nH]c(=O)c3c(C(F)(F)F)c(C(=O)N[C@H](C)c4ccc(F)cc4)nn3c2C)cc1C` [Example 1-123, 6-(3,4-Dimethylphenyl)-N-[(1R)-1-(4-fluorophenyl)ethyl]-7-methyl-4-oxo-3-(trifluoromethyl)-4,5-dihydropyrazolo[1,5-a]pyrazine-2-carboxamide], the IC50 was 3.2 nM.

On to `CC(C)c1c(C(=O)N[C@H](CCO)c2ccc(F)cc2)nn2cc(-c3ccc(Cl)cc3)[nH]c(=O)c12` [6-670], for which the IC50 worked out at 2 nM.

Regarding `CN1CC(NC(=O)c2nn3cc(-c4ccc(Cl)c(C(F)F)c4)[nH]c(=O)c3c2C2CC2)(c2ccc(F)cc2)C1` [6-665], the IC50 is 3.1 nM.

For the molecule `Cc1ccc(-c2cn3nc(C(=O)NCC(O)C(F)(F)F)c(C4CC4)c3c(=O)[nH]2)cc1Cl` (single isomer, unassigned) [6-259], the IC50 worked out at 0.64 nM.

For `O=C(NC1CCN(C2CC2)C1)c1nn2cc(-c3ccc4ccccc4c3)[nH]c(=O)c2c1C(F)(F)F` (racemic) [6-499], the IC50 was 13 nM.

In the case of `Cc1ccc(-c2cn3nc(C(=O)N[C@@H](C)CCO)c(C4CC4)c3c(=O)[nH]2)cc1Cl` [6-270], the IC50 turned out to be 2.67 nM.

Regarding `Cc1ccc(-c2cn3nc(C(=O)N[C@@H](c4ccc(F)cc4)C(C)(C)O)c(C(F)(F)C(F)(F)F)c3c(=O)[nH]2)cc1F` [6-492], the IC50 was 1.8 nM.

For `COc1ccc([C@@H](C)NC(=O)c2cc3c(=O)[nH]c(-c4ccc5c(c4F)OCCO5)cn3n2)cn1` [Example 1-108, 6-(5-Fluoro-2,3-dihydro-1,4-benzodioxin-6-yl)-N-[(1R)-1-(6-methoxpyridin-3-yl)ethyl]-4-oxo-4,5-dihydropyrazolo[1,5-a]pyrazine-2-carboxamide], the IC50 was 2.5 nM.

Consider `O=C(NC(CO)c1ccc(F)cc1)c1cc2c(=O)[nH]c(-c3ccc4ccccc4c3)cn2n1` (centres unmarked) [Example 1-61, N-[1-(4-Fluorophenyl)-2-hydroxyethyl]-6-(2-naphthyl)-4-oxo-5H-pyrazolo[1 ,5-a]pyrazine-2-carboxamide], for which the IC50 was determined as 4.2 nM.

On to `COC[C@H](C)NC(=O)c1nn2cc(-c3ccc4ccccc4c3)[nH]c(=O)c2c1C(F)(F)F` [6-515], for which the IC50 was determined as 3 nM.

Consider `Cc1ccc(-c2cn3nc(C(=O)NCC(N)C(F)(F)F)c(C(F)(F)F)c3c(=O)[nH]2)cc1C` (racemic) [6-118], for which the IC50 amounted to 5.6 nM.

For the molecule `Cc1ccc([C@H](C)NC(=O)c2nn3cc(-c4cnc5cccc(C)c5c4)[nH]c(=O)c3c2C(C)C)cc1` [Example 4-56, N-[(7S)-1-(4-Methylphenyl)ethyl]-6-(5-methylquinolin-3-yl)-4-oxo-3-(propan-2-yl)-4,5-dihydropyrazolo[1,5-a]pyrazine-2-carboxamide], the IC50 was found to be 4 nM.

Consider `CC(C)C(CNC(=O)c1cc2c(=O)[nH]c(-c3ccc4ccccc4c3)cn2n1)n1cc(Cl)cn1` (centres unmarked) [Example 2-22, N-[2-(4-Chlor-1H-pyrazol-1-yl)-3-methylbutyl]-6-(2-naphthyl)-4-oxo-4,5-dihydropyrazolo[1,5-a]pyrazine-2-carboxamide], for which the IC50 came out at 3.85 nM.

On to `C[C@@H](CO)NC(=O)c1nn2cc(-c3ccc4ccccc4c3)[nH]c(=O)c2c1C(F)(F)F` [6-526], for which the IC50 was 9.43 nM.

In the case of `Cc1cc(-c2cn3nc(C(=O)N[C@@H](C)C(C)C)c(C(F)(F)F)c3c(=O)[nH]2)ccc1Cl` [6-215], the IC50 stood at 2.7 nM.

As to `Cc1ccc(-c2cn3nc(C(=O)NCC(O)C(F)(F)F)c(C4CC4)c3c(=O)[nH]2)cc1C(F)(F)F` (racemic) [6-243], the IC50 was found to be 2 nM.
